Measured values: patent US5602106A, “16-membered macrolide derivatives” (priority 1993, dated 1997)
In brackets after ≈: the same amount, converted by molar mass. Where two headings read alike, the source gives them in different places.

Columns and labels:
Format in all cases: cell-based
test strains = test: Antimicrobial activity in vitro, test strains overall; conditions: for antimicrobial activities compared with starting materials (1), (2) and (33): 9-O-acylated vs free 9-hydroxyl
Experimental: (§1) The effect of the first aspect of the present invention resides in the creation of a novel and useful 16-membered macrolide derivative. Antimicrobial activities of the compounds of the present invention were determined by measuring minimum inhibitory concentration (MIC). Minimum inhibitory concentration was determined by the agar plate dilution method in the following manner.
(§2) Test strains were subjected to seed culture using Sensitivity test broth (STB, Nissui Pharmaceutical) except that the strains belonging to the genus Streptococcus, Branhamella and Haemophilus were cultured on blood agar plate. A 5 μl portion of cell suspension of the test strains having about 10^6 CFU/ml was inoculated into Sensitivity disk agar (SDA, Nissui Pharmaceutical) supplemented with 5% horse blood and incubated at 37° C. for 20 hours. Then, MIC was measured. […] Antimicrobial activities in vitro of the compounds (1) and (2) are shown in Table 1, and those of the compounds (3) and (4) in Table 3.

S. aureus M126 = test: MIC, agar plate dilution method; conditions: Staphylococcus aureus, 37° C., 20 hours, SDA with 5% horse blood, read-out: Antimicrobial activity (MIC)
Experimental: as §1, §2

S. aureus MS15027 = test: MIC, agar plate dilution method; conditions: Staphylococcus aureus
Experimental: as §1, §2

H. influenzae Type b = test: MIC, agar plate dilution method; conditions: Haemophilus influenzae
Experimental: as §1, §2

S. aureus MS15026 = test: MIC, agar plate dilution method; conditions: Staphylococcus aureus, 37° C., 20 hours, SDA with 5% horse blood, read-out: Antimicrobial activity (MIC)
Experimental: as §1, §2

S. pneumoniae Type 1 = test: MIC, agar plate dilution method; conditions: Streptococcus pneumoniae
Experimental: as §1, §2

K. pneumoniae PCI602 = test: MIC, agar plate dilution method; conditions: Klebsiella pneumoniae, PCI602, 20 h, 37° C., SDA with 5% horse blood, read-out: Antimicrobial activity (MIC)
Experimental: as §1, §2

E. coli NIHJ JC-2 = test: MIC, agar plate dilution method; conditions: Escherichia coli, NIHJJC2, 20 h, 37° C., SDA with 5% horse blood, read-out: Antimicrobial activity (MIC)
Experimental: as §1, §2

M. luteus ATCC9341 = test: MIC, agar plate dilution method; conditions: Micrococcus luteus
Experimental: as §1, §2

B. catarrhalis W-0500 = test: MIC, agar plate dilution method; conditions: Moraxella catarrhalis
Experimental: as §1, §2

B. catarrhalis W-0506 = test: MIC, agar plate dilution method; conditions: Moraxella catarrhalis
Experimental: as §1, §2

S. pyogenes Cook = test: MIC, agar plate dilution method; conditions: Streptococcus pyogenes; 37° C., 20 hours, SDA with 5% horse blood; read-out: Antimicrobial activity (MIC)
Experimental: as §1, §2

S. aureus MS15009/pMS99 = test: MIC, agar plate dilution method; conditions: Staphylococcus aureus, MS15009/PMS99, 20 h, read-out: Antimicrobial activity (MIC)
Experimental: as §1, §2

S. epidermidis ATCC14990 = test: MIC, agar plate dilution method; conditions: Staphylococcus epidermidis
Experimental: as §1, §2

## CCCC(=O)O[C@H]1[C@H](C)O[C@@H](O[C@H]2[C@H](N(C)C)[C@@H](O)[C@H](O[C@H]3[C@@H](CC=O)C[C@@H](C)[C@@H](OC(=O)CC)/C=C/C=C/C[C@@H](C)OC(=O)C[C@@H](O)[C@@H]3OC)O[C@@H]2C)C[C@@]1(C)OC [(40), 9-O-propionyl-3"-O-methylleucomycin A5]
Test strains
  antimicrobial activities compared with starting materials (1), (2) and (33): strong antimicrobial activities by themselves though slightly lower than those of their starting materials

## CCC(=O)O[C@H]1[C@H](C)O[C@@H](O[C@H]2[C@H](N(C)C)[C@@H](O)[C@H](O[C@H]3[C@@H](CC=O)C[C@@H](C)[C@@H](OC(C)=O)/C=C/C=C/C[C@@H](C)OC(=O)C[C@@H](O)[C@@H]3OC)O[C@@H]2C)C[C@@]1(C)OC [(6), 9-O-acetyl-3"-O-methylleucomycin A7]
Test strains
  antimicrobial activities compared with starting materials (1), (2) and (33): strong antimicrobial activities by themselves though slightly lower than those of their starting materials

## CCOC(C)O[C@H]1/C=C/C=C/C[C@@H](C)OC(=O)C[C@@H](OC(=O)CC)[C@H](OC)[C@@H](O[C@@H]2O[C@H](C)[C@@H](O[C@H]3C[C@@](C)(OC)[C@@H](OC(=O)CC)[C@H](C)O3)[C@H](N(C)C)[C@H]2O)[C@@H](CC=O)C[C@H]1C (single isomer, unassigned) [(16L)]
Test strains; vs compound (1)
  antimicrobial activities compared with compound (1): inferior to those of the compound (1)

## CCC(=O)O[C@H]1[C@H](C)O[C@@H](O[C@H]2[C@H](N(C)C)[C@@H](O)[C@H](O[C@H]3[C@@H](CC=O)C[C@@H](C)[C@@H](O)/C=C/C=C/C[C@@H](C)OC(=O)C[C@@H](O)[C@@H]3OC)O[C@@H]2C)C[C@@]1(C)O [LM-A7, leucomycin A7, reference compound]
S. aureus M126
  MIC: > 100 µg/mL
S. aureus MS15027; MS15027, 20 h, read-out: Antimicrobial activity (MIC), 37° C., 20 hours, SDA with 5% horse blood
  MIC: 3.13 µg/mL (≈ 4.13 µM)
S. aureus MS15027; MS15027, 37° C., 20 hours, SDA with 5% horse blood, read-out: Antimicrobial activity (MIC)
  MIC: 0.39 µg/mL (≈ 0.515 µM)
H. influenzae Type b; 20 h, read-out: Antimicrobial activity (MIC), 37° C., 20 hours, SDA with 5% horse blood
  MIC: 50 µg/mL (≈ 66 µM)
H. influenzae Type b; 37° C., 20 hours, SDA with 5% horse blood, read-out: Antimicrobial activity (MIC)
  MIC: 6.25 µg/mL (≈ 8.25 µM)
S. aureus MS15026
  MIC: > 100 µg/mL
S. pneumoniae Type 1; TYPE1, 20 h, read-out: Antimicrobial activity (MIC), 37° C., 20 hours, SDA with 5% horse blood
  MIC: 0.2 µg/mL (≈ 0.264 µM)
S. pneumoniae Type 1; TYPE1, 37° C., 20 hours, SDA with 5% horse blood, read-out: Antimicrobial activity (MIC)
  MIC: 0.39 µg/mL (≈ 0.515 µM)
K. pneumoniae PCI602
  MIC: > 100 µg/mL
E. coli NIHJ JC-2
  MIC: > 100 µg/mL
M. luteus ATCC9341; ATCC9341, 20 h, read-out: Antimicrobial activity (MIC), 37° C., 20 hours, SDA with 5% horse blood
  MIC: 0.2 µg/mL (≈ 0.264 µM)
M. luteus ATCC9341; ATCC9341, 37° C., 20 hours, SDA with 5% horse blood, read-out: Antimicrobial activity (MIC)
  MIC: 0.05 µg/mL (≈ 0.066 µM)
B. catarrhalis W-0500; W0500, 20 h, read-out: Antimicrobial activity (MIC), 37° C., 20 hours, SDA with 5% horse blood
  MIC: 12.5 µg/mL (≈ 16.5 µM)
B. catarrhalis W-0500; W0500, 37° C., 20 hours, SDA with 5% horse blood, read-out: Antimicrobial activity (MIC)
  MIC: 0.78 µg/mL (≈ 1.03 µM)
B. catarrhalis W-0506; W0506, 20 h, read-out: Antimicrobial activity (MIC), 37° C., 20 hours, SDA with 5% horse blood
  MIC: 12.5 µg/mL (≈ 16.5 µM)
B. catarrhalis W-0506; W0506, 37° C., 20 hours, SDA with 5% horse blood, read-out: Antimicrobial activity (MIC)
  MIC: 0.78 µg/mL (≈ 1.03 µM)
S. pyogenes Cook
  MIC: 0.39 µg/mL (≈ 0.515 µM)
S. aureus MS15009/pMS99
  MIC: > 100 µg/mL
S. epidermidis ATCC14990; ATCC14990, 20 h, read-out: Antimicrobial activity (MIC), 37° C., 20 hours, SDA with 5% horse blood
  MIC: 3.13 µg/mL (≈ 4.13 µM)
S. epidermidis ATCC14990; ATCC14990, 37° C., 20 hours, SDA with 5% horse blood, read-out: Antimicrobial activity (MIC)
  MIC: 0.39 µg/mL (≈ 0.515 µM)
